Here are results for two compounds from ChEMBL document CHEMBL3734721 (J Med Chem, 2015).

Data set [1] has as its target T1, 5-hydroxytryptamine receptor 2C (Homo sapiens, UniProt P28335).
T1 sequence (P28335 whole entry): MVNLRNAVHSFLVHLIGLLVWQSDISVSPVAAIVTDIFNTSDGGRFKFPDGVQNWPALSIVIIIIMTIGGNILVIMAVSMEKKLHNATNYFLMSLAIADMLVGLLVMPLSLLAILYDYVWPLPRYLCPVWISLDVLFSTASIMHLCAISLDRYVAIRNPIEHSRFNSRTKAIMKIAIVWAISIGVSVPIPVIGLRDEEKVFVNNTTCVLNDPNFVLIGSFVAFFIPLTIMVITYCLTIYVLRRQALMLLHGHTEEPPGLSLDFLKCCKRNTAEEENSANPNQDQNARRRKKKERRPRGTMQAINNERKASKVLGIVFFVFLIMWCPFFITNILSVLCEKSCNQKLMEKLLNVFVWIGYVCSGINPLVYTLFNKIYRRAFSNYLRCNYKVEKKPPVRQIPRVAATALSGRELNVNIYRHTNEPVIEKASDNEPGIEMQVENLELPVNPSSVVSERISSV
Kind of data set: Antagonist activity at human 5-HT2C receptor expressed in CHO-K1 cells assessed as seretonin-induced calcium level by FDSS assay. It is filed as functional, cell-based.

For data set [2], the target named is T2, Adenosine receptor A3 (Homo sapiens, UniProt P0DMS8).
T2 sequence (P0DMS8 whole entry): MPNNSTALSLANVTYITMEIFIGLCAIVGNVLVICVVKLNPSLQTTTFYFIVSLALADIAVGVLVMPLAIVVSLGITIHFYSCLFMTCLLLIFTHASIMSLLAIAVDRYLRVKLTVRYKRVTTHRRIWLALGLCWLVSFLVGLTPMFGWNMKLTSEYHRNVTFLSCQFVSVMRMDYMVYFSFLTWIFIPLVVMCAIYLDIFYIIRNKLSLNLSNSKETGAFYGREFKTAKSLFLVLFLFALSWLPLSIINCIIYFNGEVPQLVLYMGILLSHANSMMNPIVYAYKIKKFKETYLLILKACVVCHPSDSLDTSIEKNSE
Put plainly: Antagonist activity at human wild-type A3 receptor expressed in CHO-K1 cells assessed as IB MECA-induced cAMP by HTRF assay. It is filed as functional, cell-based. (Time-resolved FRET reads energy transfer from a long-lived donor to a nearby acceptor.)

The target in data set [3] is Vasopressin V1a receptor (Homo sapiens, UniProt P37288). Kind of data set: Antagonist activity at human wild-type AVPR1A receptor expressed in CHO-K1 cells assessed as vassopressin-induced calcium by FDSS assay. It is filed as functional, cell-based.
The target of data set [4] is T3, Cholecystokinin receptor type A (Homo sapiens, UniProt P32238).
T3 sequence (P32238 whole entry): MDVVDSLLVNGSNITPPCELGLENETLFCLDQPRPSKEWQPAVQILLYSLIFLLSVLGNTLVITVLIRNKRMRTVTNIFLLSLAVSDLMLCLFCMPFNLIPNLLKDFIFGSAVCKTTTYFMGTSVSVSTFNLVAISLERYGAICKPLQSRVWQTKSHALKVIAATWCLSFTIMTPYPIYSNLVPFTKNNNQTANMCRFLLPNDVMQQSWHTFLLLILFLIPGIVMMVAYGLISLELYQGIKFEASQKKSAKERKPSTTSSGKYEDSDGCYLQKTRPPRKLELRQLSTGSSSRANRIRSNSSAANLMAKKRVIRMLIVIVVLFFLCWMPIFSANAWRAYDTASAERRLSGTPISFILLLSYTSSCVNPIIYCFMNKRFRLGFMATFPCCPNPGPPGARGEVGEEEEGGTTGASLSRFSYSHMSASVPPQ
Kind of data set: Antagonist activity at human wild-type CCKA receptor expressed in CHO-K1 cells assessed as CCK8-induced calcium by FDSS assay. The format is functional, cell-based.

Data set [5] deals with 5-hydroxytryptamine receptor 2A (Homo sapiens, UniProt P28223). Kind of data set: Agonist activity at human 5-HT2A receptor expressed in CHO-K1 cells assessed as calcium level by FDSS assay. It is filed as functional, cell-based.
Data set [6] addresses T1, 5-hydroxytryptamine receptor 2C. Kind of data set: Agonist activity at human 5-HT2C receptor expressed in CHO-K1 cells assessed as calcium level by FDSS assay. The format is functional, cell-based.
Data set [7] addresses T4, Alpha-2A adrenergic receptor (Homo sapiens, UniProt P08913).
T4 sequence (P08913 whole entry): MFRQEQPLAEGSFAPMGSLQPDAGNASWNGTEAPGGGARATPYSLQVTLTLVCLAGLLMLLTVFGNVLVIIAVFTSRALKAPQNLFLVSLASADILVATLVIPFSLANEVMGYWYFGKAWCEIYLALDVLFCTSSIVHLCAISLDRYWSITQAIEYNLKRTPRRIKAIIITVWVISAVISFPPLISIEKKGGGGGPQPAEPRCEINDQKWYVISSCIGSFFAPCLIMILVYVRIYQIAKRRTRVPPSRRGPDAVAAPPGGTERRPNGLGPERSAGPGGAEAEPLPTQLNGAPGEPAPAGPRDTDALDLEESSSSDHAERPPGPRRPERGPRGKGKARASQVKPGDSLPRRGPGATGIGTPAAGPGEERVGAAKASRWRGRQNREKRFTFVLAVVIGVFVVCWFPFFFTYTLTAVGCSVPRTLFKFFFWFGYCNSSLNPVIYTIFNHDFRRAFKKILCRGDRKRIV
Kind of data set: Agonist activity at human wild-type alpha 2A receptor expressed in CHO-K1 cells assessed as cAMP level by HTRF assay. The format is functional, cell-based.

Data set [8] concerns the target D(1A) dopamine receptor (Homo sapiens, UniProt P21728). Kind of data set: Agonist activity at human wild-type D1 receptor expressed in CHO cells assessed as cAMP level by HTRF assay. It is filed as functional, cell-based.
Data set [9] is described as follows: Intrinsic clearance in mouse liver microsomes at 1 uM by HPLC/MS/MS analysis. The format is ADME. The note with it: read-out: CLH. On the technique in general: Liver microsomes are vesicles of endoplasmic reticulum, rich in cytochrome P450 enzymes.
For data set [10], the target named is T5, Cytochrome P450 1A2 (Homo sapiens, UniProt P05177).
T5 sequence (P05177 whole entry): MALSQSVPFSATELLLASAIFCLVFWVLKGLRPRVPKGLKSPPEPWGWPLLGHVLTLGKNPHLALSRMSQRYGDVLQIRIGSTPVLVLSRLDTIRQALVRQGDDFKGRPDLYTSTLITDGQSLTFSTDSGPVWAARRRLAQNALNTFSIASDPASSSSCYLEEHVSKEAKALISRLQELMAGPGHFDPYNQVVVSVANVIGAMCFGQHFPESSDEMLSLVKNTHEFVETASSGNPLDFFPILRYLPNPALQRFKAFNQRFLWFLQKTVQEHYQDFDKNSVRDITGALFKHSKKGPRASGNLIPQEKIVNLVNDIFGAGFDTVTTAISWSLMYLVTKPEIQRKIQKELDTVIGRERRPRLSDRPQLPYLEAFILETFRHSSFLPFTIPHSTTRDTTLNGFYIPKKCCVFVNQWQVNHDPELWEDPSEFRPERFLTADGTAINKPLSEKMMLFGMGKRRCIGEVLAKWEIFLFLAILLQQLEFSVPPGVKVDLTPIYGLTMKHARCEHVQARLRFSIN
Kind of data set: Inhibition of human CYP1A2 by LC-MS analysis. The format is ADME.

Data set [11] deals with Cytochrome P450 2C19 (Homo sapiens, UniProt P33261). Kind of data set: Inhibition of human CYP2C19 by LC-MS analysis. It is filed as ADME.
The subject of data set [12] is human MDR1. Kind of data set: Permeability across apical to basolateral in MDCK expressing human MDR1 at 5 uM by LC-MS/MS method. As to conditions: dog, read-out: permeability. It is filed as ADME, cell-based, Canis lupus familiaris.
The nature of data set [13]: Fraction unbound in human plasma at 5 uM after 4.5 hrs by LC-MS/MS analysis. It is filed as ADME, cell-free.
Data set [14] has as its system HepG2. Kind of data set: Cytotoxicity against human HepG2 cells. It is filed as cell-based.

Chain of Vasopressin V1a receptor (P37288 whole entry): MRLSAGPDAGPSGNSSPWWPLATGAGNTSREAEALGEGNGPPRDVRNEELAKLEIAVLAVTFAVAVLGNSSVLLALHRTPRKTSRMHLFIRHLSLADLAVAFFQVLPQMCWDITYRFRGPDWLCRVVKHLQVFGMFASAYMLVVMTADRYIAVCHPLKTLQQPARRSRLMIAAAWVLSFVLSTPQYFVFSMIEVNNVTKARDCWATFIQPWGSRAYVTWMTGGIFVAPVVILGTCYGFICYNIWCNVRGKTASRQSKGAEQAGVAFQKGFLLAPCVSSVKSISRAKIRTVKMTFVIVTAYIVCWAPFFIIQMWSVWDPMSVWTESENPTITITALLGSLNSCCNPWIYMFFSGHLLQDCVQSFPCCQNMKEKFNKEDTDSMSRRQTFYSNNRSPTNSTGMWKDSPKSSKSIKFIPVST
Chain of D(1A) dopamine receptor (P21728 whole entry): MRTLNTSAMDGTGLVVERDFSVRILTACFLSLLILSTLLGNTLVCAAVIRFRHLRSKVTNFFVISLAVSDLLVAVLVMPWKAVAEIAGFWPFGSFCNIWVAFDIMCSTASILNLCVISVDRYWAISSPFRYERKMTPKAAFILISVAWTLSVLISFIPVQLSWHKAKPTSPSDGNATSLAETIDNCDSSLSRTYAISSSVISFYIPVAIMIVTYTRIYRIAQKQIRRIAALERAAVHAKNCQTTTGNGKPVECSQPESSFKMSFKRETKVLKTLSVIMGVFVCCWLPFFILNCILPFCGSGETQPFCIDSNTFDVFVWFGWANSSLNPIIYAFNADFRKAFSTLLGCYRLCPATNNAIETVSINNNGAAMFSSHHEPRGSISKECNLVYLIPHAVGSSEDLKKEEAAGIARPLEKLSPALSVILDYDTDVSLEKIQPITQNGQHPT
Chain of Cytochrome P450 2C19 (P33261 whole entry): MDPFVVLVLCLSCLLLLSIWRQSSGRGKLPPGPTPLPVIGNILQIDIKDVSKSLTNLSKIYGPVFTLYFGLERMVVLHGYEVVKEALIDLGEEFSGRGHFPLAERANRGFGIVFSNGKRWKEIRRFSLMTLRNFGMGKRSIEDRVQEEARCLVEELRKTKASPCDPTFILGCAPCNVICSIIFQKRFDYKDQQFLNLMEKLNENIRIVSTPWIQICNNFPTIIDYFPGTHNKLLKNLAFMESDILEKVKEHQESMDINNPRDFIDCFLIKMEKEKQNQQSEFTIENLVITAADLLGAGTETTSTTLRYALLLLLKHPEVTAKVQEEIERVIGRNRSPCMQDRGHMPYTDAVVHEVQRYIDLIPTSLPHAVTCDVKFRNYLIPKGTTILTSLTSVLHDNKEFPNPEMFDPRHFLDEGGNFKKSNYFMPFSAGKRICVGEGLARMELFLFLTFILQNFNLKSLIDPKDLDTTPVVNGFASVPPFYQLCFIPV
Chain of 5-hydroxytryptamine receptor 2A (P28223 whole entry): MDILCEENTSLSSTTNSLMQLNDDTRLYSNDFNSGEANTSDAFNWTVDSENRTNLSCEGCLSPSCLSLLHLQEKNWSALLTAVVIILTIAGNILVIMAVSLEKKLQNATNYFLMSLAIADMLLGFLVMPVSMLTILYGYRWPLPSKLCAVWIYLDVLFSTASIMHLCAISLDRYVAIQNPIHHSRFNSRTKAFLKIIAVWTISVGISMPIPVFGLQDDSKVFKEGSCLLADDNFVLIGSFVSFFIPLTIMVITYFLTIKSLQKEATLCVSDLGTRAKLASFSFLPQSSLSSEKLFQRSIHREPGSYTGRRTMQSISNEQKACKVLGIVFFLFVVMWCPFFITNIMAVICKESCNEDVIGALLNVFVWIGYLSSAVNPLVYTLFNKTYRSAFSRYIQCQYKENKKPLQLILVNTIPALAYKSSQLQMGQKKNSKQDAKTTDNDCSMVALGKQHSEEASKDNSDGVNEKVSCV

Turning to `CB1C=Cc2cccc(OCC(O)CNC(C)C)c2N1` (stereo not drawn), the IC50 in data set [1] was over 5.01 µM; in data set [2] it was over 5.01 µM; in data set [3], over 5.01 µM; in data set [4], over 5.01 µM; in data set [10], 3.16 µM; in data set [11], over 10 µM. Besides, the EC50 in data set [5], in [6], in data set [7] and in data set [8] was over 5.01 µM in each case. The microsomal CLint at 1 µM in [9] was over 346 µL/min/mg. Further, the Papp A→B at 5 µM in data set [12] was 1.3 ×10⁻⁶ cm/s. Moreover, the fraction unbound at 4.5 h, 5 µM in [13] was determined as 0.179. The compound further displayed an EC20 in data set [14] of 18.7 µM.

As to `CB1C=Cc2c(cccc2OCC(O)CN(C)C)N1` (stereo not drawn), the IC50 in data set [1] is over 5.01 µM; in data set [2] it was over 5.01 µM; in [3], over 5.01 µM; in data set [4], over 5.01 µM; in data set [10] it was over 10 µM; in data set [11], over 10 µM. For the same compound, the EC50 in [5], in [6], in data set [7] and in [8] was over 5.01 µM each time. In data set [9], the microsomal CLint at 1 µM stood at 175 µL/min/mg. Further, the Papp A→B at 5 µM in data set [12] stood at 2.3 ×10⁻⁶ cm/s. Moreover, in [13], the fraction unbound at 4.5 h, 5 µM is 0.367. Further, in [14], the concentration for an effect of 20% (EC20) was 59 µM.

Usually IC50 stands for the midpoint of a concentration-inhibition curve. One may read the EC50 as the concentration needed to bring the measured effect to its halfway point. Usually fraction unbound stands for free concentration divided by total concentration. A word on the EC20: it is the concentration at which the effect reaches the 20% level.
